In patent US12721846B2, “Methods for treating behavioral and psychological symptoms in patients with dementia” (SUVEN LIFE SCIENCES LIMITED, priority 2019, dated 2026):
“Also recorded” adds a separate entry of the source.

Columns and labels:
[1] = 30 mg daily dose; patients with AD; cited from earlier work
[2] = cited from earlier work
[3] = tested on: DOI induced head twitch response (model of hallucination); experiment: DOI induced head twitch response; assay type: in vivo, rat; conditions: 1 mg/kg, p.o.; DOI 5 mg/kg s.c.; 10 min
Procedure: DOI induced head twitch response is considered to be a behavioral model of hallucination (Pharmacol Rep. 2012; 64(6):1567-72). Male Wistar rats of 200-290 g were weighed and randomized according to their body weights. On day 1, rats were first habituated to the arena for 15 min. […] 15 min before the trial, rats were subjected to habituation and immediately following the habituation, DOI, 5 mg/kg s.c was administered. The rats were then placed in the arena and head twitches were recorded for 10 min. Data were analyzed using GraphPad Prism software.

[4] = tested on: Swiss albino mice (aggression, duration of attack); experiment: Resident-intruder task; assay type: in vivo, mouse; conditions: masupirdine 0.30 mg/kg p.o. 60 min prior; donepezil or memantine 0.30 mg/kg i.p. 30 min prior; 10 min exposure
Procedure: Male Swiss albino mice of weight range 30-40 g (Resident) and 15-25 g (Intruder) were used. Resident mice were habituated individually with an ovariectomized female mouse in each cage for at least 2 weeks and intruders were habituated socially for at least 5 days. β-Estradiol at a dose of 0.2 mg/kg, s.c. was administered to ovariectomized female mice during habituation. After habituation for 3 weeks, the intruder was exposed to resident mice for a period of 10 min in the home cage of resident animal and duration of attack was recorded for two days (day 1 & 2). During this 10 min exposure period, ovariectomized female mice were removed from resident cage, resident animals were randomized based on their duration of attack. On day 4 (from initial exposure), resident animals were administered respective treatments. […] After post dose interval resident mice were exposed to same intruder for 10 min and duration of attack was recorded. Data were analyzed using GraphPad Prism software.

[5] = tested on: norepinephrine and dopamine levels in prefrontal cortex; experiment: Microdialysis: modulation of norepinephrine and dopamine levels in cortex; assay type: in vivo, rat; conditions: male Wistar rats, masupirdine 3 mg/kg p.o., donepezil or memantine 1 mg/kg s.c.
Excerpt: Male Wistar rats (240-300 g body weight) were stereotaxically implanted with a microdialysis guide cannula in prefrontal cortex (PFC; AP: +3.2 mm, ML: −0.5 mm, DV: −1.0 mm) under isoflurane anesthesia. […] The rats were allowed to recover individually for four days in a round bottom Plexiglas bowl with free access to feed and water.
Sixteen hours before start of the study, a pre-equilibrated microdialysis probe (4 mm dialysis membrane) was inserted into PFC through the guide cannula. On the day of study, probe was perfused with artificial cerebrospinal fluid (aCSF; NaCl 150 mmol, KCl 3.0 mmol, MgCl2 0.9 mmol, CaCl2. 2H2O 1.7 mmol, pH 6.2) at a flow rate of 1.5 μL/min and a stabilization period of 2 h was maintained. […] Dialysates were stored below −50° C. prior to analysis.
Norepinephrine and dopamine levels in dialysates were quantified using LC-MS/MS method.
Statistical significance was considered at a p value less than 0.05.

CN(C)CCCC1(c2ccc(F)cc2)OCc2cc(C#N)ccc21 (centres unmarked) [Citalopram]
adverse effects seen in treatment group [1]: Worsening of cognition; also recorded: QT interval prolongation

CC(C)COc1ccc(CNC(=O)N(Cc2ccc(F)cc2)C2CCN(C)CC2)cc1 [Pimavanserin]
effect for agitation ([2]; AD study): no effect
effect on NPI-NH psychosis scale ([2]; week 6): statistically significant effect

COc1ccc2c(c1)c(CN1CCN(C)CC1)cn2S(=O)(=O)c1ccccc1Br [masupirdine, 1-[(2-bromophenyl)sulfonyl]-5-methoxy-3-[(4-methyl-1-piperazinyl)methyl]-1H-indole]
number of head twitches [3]: significantly reduced the number of head twitches
duration of attack compared with basal [4]: equal duration of attack

CC12CC3CC(C)(C1)CC(N)(C3)C2 [memantine]
duration of attack compared with basal [4]: decrease in duration of attack when compared with its basal; however it was not statistically significant
cortical dopamine levels, AUC of percent change [5]: 327.75±24.99
cortical norepinephrine levels, AUC of percent change [5]: 371.34±22.45
